2 molecules from ChEMBL document CHEMBL1275540, “Plasmid-mediated quinolone resistance determinants qnrA, qnrB, and qnrS among clinical isolates of Enterobacteriaceae in a Korean hospital” (2008) can be followed below.

One may read the MIC90 as an inhibitory concentration at the 90% level, which refers to growth in some studies and to a panel of isolates in others.

≈ marks a conversion by molar mass, not a printed value.

Type in all cases: functional
The subject of assay [1] is Escherichia coli. The assay can be described thus: Antibacterial activity against Escherichia coli RG488 by agar dilution method.
Assay [2] concerns Escherichia coli. Put plainly: Antibacterial activity against rifampin resistant Escherichia coli RG488 receiving Klebsiella pneumoniae qnrB4 by agar dilution method. In general terms: In agar dilution the substance is mixed into plates at graded concentrations.
Assay [3] concerns Escherichia coli. The assay can be described thus: Antibacterial activity against rifampin resistant Escherichia coli RG488 receiving Klebsiella pneumoniae qnrS1 by agar dilution method.
Assay [4] has as its system Escherichia coli. Put plainly: Antibacterial activity against Escherichia coli J53 by agar dilution method.
Assay [5] concerns Escherichia coli. Put plainly: Antibacterial activity against rifampin resistant Escherichia coli RG488 receiving Escherichia coli qnrB4 by agar dilution method.
Assay [6] concerns Escherichia coli. Put plainly: Antibacterial activity against rifampin resistant Escherichia coli RG488 receiving Enterobacter cloacae qnrB4 by agar dilution method.
Assay [7] has as its system Escherichia coli. The assay can be described thus: Antibacterial activity against rifampin resistant Escherichia coli RG488 receiving Klebsiella pneumoniae qnrB6 by agar dilution method.

In the case of `O=C(O)c1cn(C2CC2)c2cc(N3CCNCC3)c(F)cc2c1=O` [CIPROFLOXACIN], the MIC90 against Escherichia coli [1] stood at 0.03 µg/mL (≈ 0.0905 µM); with Escherichia coli [2] it was 0.125 µg/mL (≈ 0.377 µM); against Escherichia coli [3], 1 µg/mL (≈ 3.02 µM); against Escherichia coli [4], 0.015 µg/mL (≈ 0.0453 µM).

With `CCn1cc(C(=O)O)c(=O)c2ccc(C)nc21` [NALIDIXIC ACID], the MIC90 against Escherichia coli [5] is 16 µg/mL (≈ 68.9 µM); in the assay with Escherichia coli [1], 4 µg/mL (≈ 17.2 µM); in the assay on Escherichia coli [6] it was 8 µg/mL (≈ 34.4 µM); with Escherichia coli [2], 8 µg/mL (≈ 34.4 µM); with Escherichia coli [3], 32 µg/mL (≈ 138 µM); in the assay with Escherichia coli [7], 16 µg/mL (≈ 68.9 µM). The molecule also yielded an MIC90 in the assay with Escherichia coli [4] of 4 µg/mL (≈ 17.2 µM).
